In patent US7279494B2, “Antimicrobial [3.1.0] bicyclohexylphenyl-oxazolidinone derivatives and analogues” (Pfizer Inc., priority 2003, dated 2007):
In brackets after ≈: the same amount, converted by molar mass. Where two headings read alike, the source gives them in different places.

Columns and labels:
Format in all cases: cell-based
S. pneumoniae UC9912 = test: MIC by standard agar dilution, S. pneumoniae UC9912; conditions: Streptococcus pneumoniae, UC9912, Mueller Hinton agar, incubated overnight at 35° C.
Source text: (§1) The in vitro activity of compounds of the subject invention may be assessed by standard testing procedures such as the determination of minimum inhibitory concentration (MIC) by agar dilution as described in “Approved Standard. Methods for Dilution Antimicrobial Susceptibility Tests for Bacteria that Grow Aerobically,” 3rd ed., published 1993 by the National Committee for Clinical Laboratory standards, Villanova, Pa., USA.
(§2) The in vitro MICs of test compounds may be determined by a standard agar dilution method. A stock drug solution of each analog is prepared in a preferred solvent, usually DMSO:H2O (1:3). Serial 2-fold dilutions of each sample are made using 1.0 mL aliquots of sterile distilled water. To each 1.0 mL aliquot of drug is added 9 mL of molten Mueller Hinton agar medium. The drug-supplemented agar is mixed, poured into 15×100 mm petri dishes, and allowed to solidify and dry prior to inoculation.
(§3) Vials of each of the test organisms are maintained frozen in the vapor phase of a liquid nitrogen freezer. Test cultures are grown overnight at 35° C. on the medium appropriate for the organism. Colonies are harvested with a sterile swab, and cell suspensions are prepared in Trypticase Soy broth (TSB) to equal the turbidity of a 0.5 McFarland standard. A 1:20 dilution of each suspension is made in TSB. The plates containing the drug supplemented agar are inoculated with a 0.001 mL drop of the cell suspension using a Steers replicator, yielding approximately 10^4 to 10^5 cells per spot. The plates are incubated overnight at 35° C.
(§4) Following incubation the Minimum Inhibitory Concentration (MIC μg/mL), the lowest concentration of drug that inhibits visible growth of the organism, is read and recorded.

S. aureus UC9213 = test: MIC by standard agar dilution, S. aureus UC9213; conditions: Staphylococcus aureus, UC9213, Mueller Hinton agar, incubated overnight at 35° C.
Source text: as §1, §2, §3, §4

H. influenzae 30063 = test: MIC by standard agar dilution, H. influenzae 30063
Source text: as §1, §2, §3, §4

[1] = Haemophilus influenzae, 30063, agar dilution, Mueller Hinton agar, incubated overnight at 35° C., read-out: H. influenzae 30063 MIC

SMILES	MIC (S. pneumoniae UC9912) [µg/mL]	MIC (S. aureus UC9213) [µg/mL]	MIC (H. influenzae 30063; [1]) [µg/mL]	MIC (H. influenzae 30063; Haemophilus influenzae, 30063, read-out: H. influenzae 30063 MIC) [µg/mL]
CCC(=O)NC[C@H]1CN(c2ccc([C@H]3[C@@H]4CN(C(=O)NC)C[C@@H]43)c(F)c2)C(=O)O1 [Example 24, exo-(1R,5S)-6-(4-{(5S)-5-[(propanoylamino)methyl]-2-oxo-1,3-oxazolidin-3-yl]-2-fluorophenyl)-3-azabicyclo[3.1.0]hexane-3-methylcarboxamide]	2 (≈ 4.95 µM)	4 (≈ 9.89 µM)	16 (≈ 39.6 µM)	
CCNC(=O)N1C[C@@H]2[C@H](C1)[C@H]2c1ccc(N2C[C@H](CNC(=O)CC)OC2=O)cc1F [Example 25, exo-(1R,5S)-6-(4-{(5S)-5-[(propanoylamino)methyl]-2-oxo-1,3-oxazolidin-3-yl}-2-fluorophenyl)-3-azabicyclo[3.1.0]hexane-3-ethylcarboxamide]	4 (≈ 9.56 µM)	8 (≈ 19.1 µM)	32 (≈ 76.5 µM)	
CCC(=O)NC[C@H]1CN(c2ccc([C@H]3[C@@H]4CN(C(=O)CO)C[C@@H]43)c(F)c2)C(=O)O1 [Example 26, N-[((5S)-3-{3-fluoro-4-[exo-(1R,5S)-3-glycoloyl-3-azabicyclo[3.1.0]hex-6-yl]phenyl}-2-oxo-1,3-oxazolidin-5-yl)methyl]propanamide]	0.5 (≈ 1.23 µM)	1 (≈ 2.47 µM)	4 (≈ 9.87 µM)	
CCC(=O)NC[C@H]1CN(c2ccc([C@H]3[C@@H]4CN(C(=O)COC)C[C@@H]43)c(F)c2)C(=O)O1 [Example 27, N-[((5S)-3-{3-fluoro-4-[exo-(1R,5S)-3-methoxyacetyl-3-azabicyclo[3.1.0]hex-6-yl]phenayl}-2-oxo-1,3-oxazolidin-5-yl)methyl]propanamide]	0.5 (≈ 1.19 µM)	2 (≈ 4.77 µM)	8 (≈ 19.1 µM)	
CCC(=O)NC[C@H]1CN(c2ccc([C@H]3[C@@H]4CN(C(=O)[C@@H](O)CO)C[C@@H]43)c(F)c2)C(=O)O1 [Example 28, N-[((5S)-3-{3-fluoro-4-[exo-(1R,5S)-3-((2S)-2,3-dihydroxypropanoyl)-3-azabicyclo[3.1.0]hex-6-yl]phenyl}-2-oxo-1,3-oxazolidin-5-yl)methyl]propanamide]	4 (≈ 9.19 µM)	4 (≈ 9.19 µM)	8 (≈ 18.4 µM)	
CC(=O)NC[C@H]1CN(c2ccc([C@H]3[C@@H]4CN(C(=O)[C@H](C)O)C[C@@H]43)c(F)c2)C(=O)O1 [Example 29, N-[((5S)-3-{3-fluoro-4-[exo-(1R, 5S)-3-(2-(S)-hydroxypropanoyl)-3-azabicyclo[3.1.0]hex-6-yl]phenyl}-2-oxo-1,3-oxazolidin-5-yl)methyl]acetamide]	2 (≈ 4.93 µM)	4 (≈ 9.87 µM)	16 (≈ 39.5 µM)	
CC(=O)NC[C@H]1CN(c2ccc([C@H]3[C@@H]4CN(C(=O)C5CC5)C[C@@H]43)c(F)c2)C(=O)O1 [Example 30, N-[((5S)-3-{3-fluoro-4-[exo-(1R,5S)-3-cyclopropanecarbonyl-3-azabicyclo[3.1.0]hex-6-yl]phenyl}-2-oxo-1,3-oxazolidin-5-yl)methyl]acetamide]	4 (≈ 9.96 µM)	4 (≈ 9.96 µM)	16 (≈ 39.9 µM)	
CC(=O)NC[C@H]1CN(c2ccc([C@H]3[C@@H]4CN(C(=O)C5(O)CC5)C[C@@H]43)c(F)c2)C(=O)O1 [Example 31, N-[((5 S)-3-{3-fluoro-4-[exo-(1R,5S)-3-(1-hydroxy-cyclopropanecarbonyl)-3-azabicyclo[3.1.0]hex-6-yl]phenyl}-2-oxo-1,3-oxazolidin-5-yl)methyl]acetamide]	2 (≈ 4.79 µM)	2 (≈ 4.79 µM)	16 (≈ 38.3 µM)	
CC(=O)NC[C@H]1CN(c2ccc([C@H]3[C@@H]4CN(C(=O)C(C)(C)O)C[C@@H]43)c(F)c2)C(=O)O1 [Example 32, N-[((5S)-3-{3-fluoro-4-[exo-(1R,5S)-3-(2-hydroxy-2-methyl-propanoyl)-3-azabicyclo[3.1.0]hex-6-yl]phenyl}-2-oxo-1,3-oxazolidin-5-yl)methyl]acetamide]	0.5 (≈ 1.19 µM)	2 (≈ 4.77 µM)	8 (≈ 19.1 µM)	
CC(=O)NC[C@H]1CN(c2ccc([C@H]3[C@@H]4CN(C(=O)[C@@H](O)C(F)(F)F)C[C@@H]43)c(F)c2)C(=O)O1 [Example 33, N-[((5S)-3-{3-fluoro-4-[exo-(1R,5S)-3-(3,3,3-trifluoro-2-(S)-hydroxypropanoyl)-3-azabicyclo[3.1.0]hex-6-yl]phenyl}-2-oxo-1,3-oxazolidin-5-yl)methyl]acetamide]	2 (≈ 4.35 µM)	2 (≈ 4.35 µM)	16 (≈ 34.8 µM)	
CC(=O)NC[C@H]1CN(c2ccc([C@H]3[C@@H]4CN(C(=O)C(F)F)C[C@@H]43)c(F)c2)C(=O)O1 [Example 34, N-[((5S)-3-{3-fluoro-4-[exo-(1R,5S)-3-difluoroacetyl-3-azabicyclo[3.1.0]hex-6-yl]phenyl}-2-oxo-1,3-oxazolidin-5-yl)methyl]acetamide]	1 (≈ 2.43 µM)	2 (≈ 4.86 µM)		8 (≈ 19.4 µM)
CC(=O)NC[C@H]1CN(c2ccc([C@H]3[C@@H]4CN(C(=O)CN)C[C@@H]43)c(F)c2)C(=O)O1 [Example 35, N-[((5S)-3-{3-fluoro-4-[exo-(1R,5S)-3-aminoacetyl-3-azabicyclo[3.1.0]hex-6-yl]phenyl}-2-oxo-1,3-oxazolidin-5-yl)methyl]acetamide]	2 (≈ 5.12 µM)	8 (≈ 20.5 µM)	16 (≈ 41 µM)	
CC(=O)NCC(=O)N1C[C@@H]2[C@H](C1)[C@H]2c1ccc(N2C[C@H](CNC(C)=O)OC2=O)cc1F [Example 36, N-[((5S)-3-{3-fluoro-4-[exo-(1R,5S)-3-acetylaminoacetyl-3-azabicyclo[3.1.0]hex-6-yl]phenyl}-2-oxo-1,3-oxazolidin-5-yl)methyl]acetamide]	4 (≈ 9.25 µM)	8 (≈ 18.5 µM)	32 (≈ 74 µM)	
CC(=O)NC[C@H]1CN(c2ccc([C@H]3[C@@H]4CN(C(=O)c5ccno5)C[C@@H]43)c(F)c2)C(=O)O1 [Example 37, N-[((5S)-3-{3-fluoro-4-[exo-(1R,5S)-3-(isoxazole-5-carbonyl)-3-azabicyclo[3.1.0]hex-6-yl]phenyl}-2-oxo-1,3-oxazolidin-5-yl)methyl]acetamide]	0.5 (≈ 1.17 µM)	1 (≈ 2.33 µM)	8 (≈ 18.7 µM)	
CC(=O)NC[C@H]1CN(c2ccc([C@H]3[C@@H]4CN(C(=O)c5cc[nH]n5)C[C@@H]43)c(F)c2)C(=O)O1 [Example 38, N-[((5S)-3-{3-fluoro-4-[exo-(1R,5S)-3-(1H-pyrazole-3-carbonyl)-3-azabicyclo[3.1.0]hex-6-yl]phenyl}-2-oxo-1,3-oxazolidin-5-yl)methyl]acetamide]	2 (≈ 4.68 µM)	2 (≈ 4.68 µM)	8 (≈ 18.7 µM)	
CC(=O)NC[C@H]1CN(c2ccc([C@H]3[C@@H]4CN(C(=O)c5c[nH]cn5)C[C@@H]43)c(F)c2)C(=O)O1 [Example 39, N-[((5S)-3-{3-fluoro-4-[exo-(1R,5S)-3-(1H-imidazole-4-carbonyl)-3-azabicyclo[3.1.0]hex-6-yl]phenyl}-2-oxo-1,3-oxazolidin-5-yl)methyl]acetamide]	1 (≈ 2.34 µM)	0.5 (≈ 1.17 µM)	4 (≈ 9.36 µM)	
CC(=O)NC[C@H]1CN(c2ccc([C@H]3[C@@H]4CN(C(=O)c5cn[nH]c5)C[C@@H]43)c(F)c2)C(=O)O1 [Example 40, N-[((5S)-3-{3-fluoro-4-[exo-(1R,5S)-3-(1H-pyrazole-4-carbonyl)-3-azabicyclo[3.1.0]hex-6-yl]phenyl}-2-oxo-1,3-oxazolidin-5-yl)methyl]acetamide]	2 (≈ 4.68 µM)	4 (≈ 9.36 µM)	16 (≈ 37.4 µM)	
CC(=O)NC[C@H]1CN(c2ccc([C@H]3[C@@H]4CN(C(=O)[C@H]5CCCO5)C[C@@H]43)c(F)c2)C(=O)O1 [Example 41, N-[((5S)-3-{3-fluoro-4-[exo-(1R,5S)-3-(tetrahydrofuran-2-(R)-carbonyl)-3-azabicyclo[3.1.0]hex-6-yl]phenyl}-2-oxo-1,3-oxazolidin-5-yl)methyl]acetamide]	2 (≈ 4.64 µM)	4 (≈ 9.27 µM)	32 (≈ 74.2 µM)	
CC(=O)NC[C@H]1CN(c2ccc([C@H]3[C@@H]4CN(C(=O)[C@@H]5CCCO5)C[C@@H]43)c(F)c2)C(=O)O1 [Example 42, N-[((5S)-3-{3-fluoro-4-[exo-(1R,5S)-3-(tetrahydrofaran-2-(S)-carbonyl)-3-azabicyclo[3.1.0]hex-6-yl]phenyl}-2-oxo-1,3-oxazolidin-5-yl)methyl]acetamide]	4 (≈ 9.27 µM)	8 (≈ 18.5 µM)	32 (≈ 74.2 µM)	
CC(=O)NC[C@H]1CN(c2ccc([C@H]3[C@@H]4CN(c5ncccn5)C[C@@H]43)c(F)c2)C(=O)O1 [Example 43, N-[((5S)-3-{3-fluoro-4-[exo-(1R,5S)-3-(pyrimidin-2-yl)-3-azabicyclo[3.1.0]hex-6-yl]phenyl}-2-oxo-1,3-oxazolidin-5-yl)methyl]acetamide]	1 (≈ 2.43 µM)	4 (≈ 9.72 µM)	32 (≈ 77.8 µM)	
CC(=O)NC[C@H]1CN(c2ccc([C@H]3[C@@H]4CN(c5nn[nH]n5)C[C@@H]43)c(F)c2)C(=O)O1 [Example 44, N-[((5S)-3-{3-fluoro-4-[exo-(1R,5S)-3-(2H-tetrazol-5-yl)-3-azabicyclo[3.1.0]hex-6-yl]phenyl}-2-oxo-1,3-oxazolidin-5-yl)methyl]acetamide]	32 (≈ 79.7 µM)	16 (≈ 39.9 µM)	64 (≈ 159 µM)	
